Like-named read-outs stand apart in the source and are kept apart here.
Tests used:
Kir6.2/SUR2A = target: T1, Kir6.2/SUR2A (Rattus norvegicus, UniProt P70673); assay: Inside-out patch clamp on HEK293T excised membrane patches, WT Kir6.2/SUR2A; type: cell-based; conditions: for IC50: inside-out patch, HEK293T; for Hill coefficient (outward): outward current
T1 construct: expressed in transfected cells; host or cells: HEK293T
Method: (§1) Inside-out patch clamp electrophysiology was performed as described previously ([Harakalova et al., 2012]). In short, HEK293T cells were cultured on 10 mm glass coverslips and transfected with 0.16 μg of rat pCMV6-Kir6.2, 0.16 μg of rat pCMV6-SUR2A and 0.08 μg of pEGFP1 expression constructs. Measurements were performed using an AxoPatch 200B amplifier controlled by pClamp 9 software (Molecular Devices) at 22°C using a ramp protocol ranging from −100 to +100 mV in 5 s from a holding potential of −40 mV. The sampling rate was 50 kHz, filter frequency was 2 kHz. Bath solution contained 131 mM KCl, 1 mM EGTA, 7.2 mM K2HPO4, 2.8 mM KH2PO4, 1 mM MgCl2, and pH 7.20/KOH. The pipette solution contained 145 mM KCl, 1 mM CaCl2, 1 mM MgCl2, 5 mM HEPES, and pH 7.40/KOH. Pipette resistance was 1.5–3 MΩ. […] All measurements were performed within a timeframe of 8–10 min. Fractional block at −80 and +50 mV was determined by dividing current levels obtained with test compound containing solutions by current levels of control traces recorded in the absence of test compound. Statistics (unpaired Students t-tests (two tailed)) were performed using Kaleidagraph 4.0 software (Synergy Software, Reading, PA, United States).
(§2) Travoprost (MedChemExpress, Monmouth Junction, NJ, United States) was dissolved in DMSO at 10 mM. Test compounds were diluted in bath solution at the indicated concentrations before the start of measurements.

Kir6.2 C166S/SUR2A = target: T2, Kir6.2 C166S/SUR2A (Rattus norvegicus, UniProt P70673, C166S); assay: Inside-out patch clamp, Cantú mutant C166S Kir6.2 with SUR2A; type: cell-based; conditions: C166S Kir6.2 (homolog of Kir6.1 C176S)/SUR2A, outward current
T2 construct: expressed in transfected cells; host or cells: HEK293T
T2 sequence (P70673 whole entry C166S): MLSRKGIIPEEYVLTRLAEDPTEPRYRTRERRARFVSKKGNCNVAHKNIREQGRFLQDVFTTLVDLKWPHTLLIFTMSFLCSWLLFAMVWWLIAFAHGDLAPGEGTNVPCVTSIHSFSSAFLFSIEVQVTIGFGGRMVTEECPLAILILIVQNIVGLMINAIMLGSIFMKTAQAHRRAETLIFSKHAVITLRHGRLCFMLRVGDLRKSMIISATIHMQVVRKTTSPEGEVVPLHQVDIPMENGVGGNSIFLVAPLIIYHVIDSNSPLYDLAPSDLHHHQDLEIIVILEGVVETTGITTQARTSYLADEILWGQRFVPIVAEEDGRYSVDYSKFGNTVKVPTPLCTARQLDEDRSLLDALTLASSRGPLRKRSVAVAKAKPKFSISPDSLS
T2 sequence (Q63563 whole entry partner): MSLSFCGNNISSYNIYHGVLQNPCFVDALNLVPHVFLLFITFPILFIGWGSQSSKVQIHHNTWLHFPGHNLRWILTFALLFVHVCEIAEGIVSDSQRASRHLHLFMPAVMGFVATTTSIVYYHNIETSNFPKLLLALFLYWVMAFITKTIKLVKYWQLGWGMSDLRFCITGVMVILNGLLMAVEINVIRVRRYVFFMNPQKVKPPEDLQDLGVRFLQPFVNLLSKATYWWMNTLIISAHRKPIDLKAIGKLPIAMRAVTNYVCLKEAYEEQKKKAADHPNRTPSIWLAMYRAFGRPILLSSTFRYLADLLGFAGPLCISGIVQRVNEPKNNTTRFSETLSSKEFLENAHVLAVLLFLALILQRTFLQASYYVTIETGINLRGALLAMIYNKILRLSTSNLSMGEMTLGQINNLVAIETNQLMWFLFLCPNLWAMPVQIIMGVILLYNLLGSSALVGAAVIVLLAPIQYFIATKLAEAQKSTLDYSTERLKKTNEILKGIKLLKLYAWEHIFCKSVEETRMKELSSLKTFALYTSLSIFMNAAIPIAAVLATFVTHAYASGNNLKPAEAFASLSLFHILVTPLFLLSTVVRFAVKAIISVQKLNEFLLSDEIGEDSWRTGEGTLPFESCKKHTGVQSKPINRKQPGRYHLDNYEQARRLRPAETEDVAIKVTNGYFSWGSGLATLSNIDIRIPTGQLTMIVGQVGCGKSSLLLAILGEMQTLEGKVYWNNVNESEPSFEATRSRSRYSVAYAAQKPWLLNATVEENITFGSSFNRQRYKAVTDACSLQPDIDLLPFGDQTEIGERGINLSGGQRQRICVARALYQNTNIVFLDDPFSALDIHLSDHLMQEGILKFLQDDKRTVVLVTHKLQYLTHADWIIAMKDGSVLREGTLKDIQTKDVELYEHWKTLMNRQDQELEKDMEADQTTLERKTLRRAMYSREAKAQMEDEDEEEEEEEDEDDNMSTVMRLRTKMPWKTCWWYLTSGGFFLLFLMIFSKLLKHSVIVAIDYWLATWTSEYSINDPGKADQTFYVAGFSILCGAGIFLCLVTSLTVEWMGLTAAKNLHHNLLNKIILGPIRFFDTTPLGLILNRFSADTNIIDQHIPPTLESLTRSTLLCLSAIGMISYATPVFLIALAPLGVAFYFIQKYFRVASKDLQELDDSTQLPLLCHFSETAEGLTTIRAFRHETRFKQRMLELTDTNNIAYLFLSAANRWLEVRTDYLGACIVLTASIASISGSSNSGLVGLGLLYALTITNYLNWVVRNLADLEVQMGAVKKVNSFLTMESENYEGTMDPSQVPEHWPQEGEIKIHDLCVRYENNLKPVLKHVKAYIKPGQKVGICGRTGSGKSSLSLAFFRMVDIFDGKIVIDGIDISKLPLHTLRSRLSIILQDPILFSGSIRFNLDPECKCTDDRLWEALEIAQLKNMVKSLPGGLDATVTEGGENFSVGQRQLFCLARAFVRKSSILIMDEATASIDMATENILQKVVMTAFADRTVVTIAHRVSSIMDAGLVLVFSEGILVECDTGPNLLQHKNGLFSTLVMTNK
Method: as §1, §2

Kir6.2/SUR2A S1020P = target: T3, Kir6.2/SUR2A S1020P (Rattus norvegicus, UniProt P70673); assay: Inside-out patch clamp, Cantú mutant S1020P SUR2A with Kir6.2; type: cell-based; conditions: S1020P SUR2A/Kir6.2, outward current
T3 construct: expressed in transfected cells; host or cells: HEK293T
T3 sequence (P70673 whole entry, stated change not applied): as the sequence (P70673 whole entry C166S) above, with S166C counted along it
T3 sequence (Q63563 whole entry S1016P partner): as the sequence (Q63563 whole entry partner) above, with S1016P counted along it
Method: as §1, §2

[1] = tested on: Kir6.2/SURx (pancreatic and heart) channels; design: method as in Yu et al., 2012; conditions: ref Yu et al., 2012; cited from earlier work
vascular Kir6.1/SUR2B = tested on: vascular Kir6.1/SUR2B; design: method as in Yu et al., 2011; conditions: ref Yu et al., 2011; cited from earlier work
[2] = design: method as in Cox et al., 2000; conditions: used to treat type II diabetes mellitus; ref Cox et al., 2000; cited from earlier work
Kir1.1 = tested on: Kir1.1; design: method as in Yu et al. (2012); conditions: ref Yu et al. (2012); cited from earlier work
Kir2.1 = tested on: Kir2.1; design: method as in Yu et al. (2012); conditions: ref Yu et al. (2012); cited from earlier work
Kir4.1 = tested on: Kir4.1; design: method as in Yu et al. (2012); conditions: ref Yu et al. (2012); cited from earlier work
[3] = outward current component (+50 mV), mean ± SEM, read-out: IC50 outward

T1 sequence (P70673 whole entry): as the sequence (P70673 whole entry C166S) above, with S166C counted along it
T1 sequence (Q63563 whole entry partner): as the sequence (Q63563 whole entry partner) above

SMILES: CC(NCCc1ccc(O)cc1)C(O)c1ccc(O)cc1 (centres unmarked) [Ritodrine]
- IC50 (Kir6.2/SUR2A; [3]): 7.09 ± 0.45 µM
- Hill coefficient (outward) (Kir6.2/SUR2A; Hill equation fit): 0.86
- IC50 (Kir6.2 C166S/SUR2A): 10.4 ± 0.87 µM
- IC50 (Kir6.2/SUR2A S1020P): 6.77 ± 0.49 µM

SMILES: CC(C)OC(=O)CCC/C=C\C[C@@H]1[C@@H](/C=C/[C@@H](O)COc2cccc(C(F)(F)F)c2)[C@H](O)C[C@@H]1O [Travoprost]
- IC50 (Kir6.2/SUR2A; inward current component (-80 mV), read-out: IC50 inward): 2.3 ± 1.26 µM
- Hill coefficient (inward) (Kir6.2/SUR2A; inward current, Hill equation fit): 0.65
- IC50 (Kir6.2/SUR2A; [3]): 2.46 ± 0.52 µM
- Hill coefficient (outward) (Kir6.2/SUR2A; Hill equation fit): 0.71
- IC50 (Kir6.2 C166S/SUR2A): 14.8 ± 2.16 µM
- IC50 (Kir6.2/SUR2A S1020P): 11 ± 1.28 µM

SMILES: CN(CCOc1ccc(CC2SC(=O)NC2=O)cc1)c1ccccn1 (centres unmarked) [RSG, 5-[[4-[2-[methyl(pyridin-2-yl)amino]ethoxy]phenyl]methyl]-1,3-thiazolidine-2,4-dione]
- IC50 (Kir6.2/SUR2A; [3]): 26 ± 1.49 µM
- IC50 (Kir6.2 C166S/SUR2A): 34.9 ± 2.34 µM
- IC50 (Kir6.2/SUR2A S1020P): 25.4 ± 4.24 µM
- IC50 [1]: 45 µM
- IC50 (vascular Kir6.1/SUR2B): 10 µM
- plasma concentrations [2]: ~3000 nM
- sensitivity of channel to drug (Kir1.1): insensitive
- sensitivity of channel to drug (Kir2.1): insensitive
- sensitivity of channel to drug (Kir4.1): insensitive

SMILES: CC(C)NCC(O)COc1ccc(CCOCC2CC2)cc1 (centres unmarked) [Betaxolol]
- IC50 (Kir6.2/SUR2A; [3]): 22.1 ± 2.47 µM
- Hill coefficient (outward) (Kir6.2/SUR2A; Hill equation fit): 0.89
- IC50 (Kir6.2 C166S/SUR2A): 41.2 ± 2.89 µM
- IC50 (Kir6.2/SUR2A S1020P): 29.5 ± 3.78 µM
